# Experimental data taken from ChEMBL document CHEMBL3885861, “Open TG-GATES”.
# Where “and” joins values, the source holds several entries; their conditions need not be identical. Equal entries are not always repeated.
# Organism: Rattus norvegicus
# Assay: Open TG-GATES - Regimen: Single
# Format: toxicity, organism-based, Sprague-Dawley
# Design: regimen Single, gender Male, age 6 weeks
# Settings: in vivo, po, route gavage; for LIVER: tissue Liver; for ALP / ALT / AST / BUN / CRE / Ca / Cl / GLC / IP / K / LDH / Na / PL / RALB / TC / TP / gamma-GTP / DBIL / TBIL: tissue Plasma; for APTT / Bas / Eos / Fbg / Hb / Ht / Lym / MCH / MCHC / MCV / Mono / Neu / PT / Plat / RBC / Ret / WBC: tissue Blood; for KIDNEY_L / KIDNEY_R / KIDNEY_TOTAL: tissue Kidney
# [1] = 0 mg/kg, 24 h, dose level Control
compound,measurement,setting,value
O=P1(N(CCCl)CCCl)NCCCO1 (stereo unspecified) [CYCLOPHOSPHAMIDE ANHYDROUS],LIVER,[1],9.8 g and 8.7 g
same,ALP,[1],1816 IU/L and 1543.8 IU/L
same,ALT,[1],45.6 IU/L and 38 IU/L
same,AST,[1],71.2 IU/L and 71.6 IU/L
same,BUN,[1],16.4 mg/dL and 13.6 mg/dL
same,CRE,[1],0.2 mg/dL
same,Ca,[1],10.7 mg/dL and 11.1 mg/dL
same,Cl,[1],104.8 meq/L and 105.8 meq/L
same,GLC,[1],189.6 mg/dL and 178.8 mg/dL
same,IP,[1],7.3 mg/dL and 7.8 mg/dL
same,K,[1],4.4 meq/L
same,LDH,[1],192.2 IU/L and 79 IU/L
same,Na,[1],142.6 meq/L and 141 meq/L
same,PL,[1],161.6 mg/dL and 160.8 mg/dL
same,RALB,[1],2.9 g/dL and 2.6 g/dL
same,TC,[1],82 mg/dL and 82.6 mg/dL
same,TP,[1],5.4 g/dL and 5.6 g/dL
same,gamma-GTP,[1],1.2 IU/L
same,TERMINAL_BW,"2 mg/kg, 3 h, dose level Low",191.9 g
same,APTT,"2 mg/kg, 3 h, dose level Low",22.6 s
same,Bas,"2 mg/kg, 3 h, dose level Low",0%
same,Eos,"2 mg/kg, 3 h, dose level Low",0.4%
same,Fbg,"2 mg/kg, 3 h, dose level Low",284.6 mg/dL
same,Hb,"2 mg/kg, 3 h, dose level Low",13.1 g/dL
same,Ht,"2 mg/kg, 3 h, dose level Low",39.2%
same,Lym,"2 mg/kg, 3 h, dose level Low",85.4%
same,MCH,"2 mg/kg, 3 h, dose level Low",21.8 pg
same,MCHC,"2 mg/kg, 3 h, dose level Low",33.3%
same,MCV,"2 mg/kg, 3 h, dose level Low",65.4 fL
same,Mono,"2 mg/kg, 3 h, dose level Low",1.4%
same,Neu,"2 mg/kg, 3 h, dose level Low",12.4%
same,PT,"2 mg/kg, 3 h, dose level Low",15.9 s
same,Plat,"2 mg/kg, 3 h, dose level Low",119.4 x10_4/uL
same,RBC,"2 mg/kg, 3 h, dose level Low",600.4 x10_4/ul
same,Ret,"2 mg/kg, 3 h, dose level Low",8.8%
same,WBC,"2 mg/kg, 3 h, dose level Low",81 x10_2/uL
same,KIDNEY_L,"2 mg/kg, 3 h, dose level Low",0.9 g
same,KIDNEY_R,"2 mg/kg, 3 h, dose level Low",0.9 g
same,KIDNEY_TOTAL,"2 mg/kg, 3 h, dose level Low",1.8 g
same,LIVER,"2 mg/kg, 3 h, dose level Low",9 g
same,ALP,"2 mg/kg, 3 h, dose level Low",1623.4 IU/L
same,ALT,"2 mg/kg, 3 h, dose level Low",42.2 IU/L
same,AST,"2 mg/kg, 3 h, dose level Low",73.4 IU/L
same,BUN,"2 mg/kg, 3 h, dose level Low",12.4 mg/dL
same,CRE,"2 mg/kg, 3 h, dose level Low",0.1 mg/dL
same,Ca,"2 mg/kg, 3 h, dose level Low",10.8 mg/dL
same,Cl,"2 mg/kg, 3 h, dose level Low",107.2 meq/L
same,DBIL,"2 mg/kg, 3 h, dose level Low",0 mg/dL
same,GLC,"2 mg/kg, 3 h, dose level Low",190 mg/dL
same,IP,"2 mg/kg, 3 h, dose level Low",7.9 mg/dL
same,K,"2 mg/kg, 3 h, dose level Low",4.1 meq/L
same,LDH,"2 mg/kg, 3 h, dose level Low",181.4 IU/L
same,Na,"2 mg/kg, 3 h, dose level Low",144 meq/L
same,PL,"2 mg/kg, 3 h, dose level Low",119.2 mg/dL
same,RALB,"2 mg/kg, 3 h, dose level Low",2.9 g/dL
same,TBIL,"2 mg/kg, 3 h, dose level Low",0.022 mg/dL
same,TC,"2 mg/kg, 3 h, dose level Low",64.4 mg/dL
same,TP,"2 mg/kg, 3 h, dose level Low",5.2 g/dL
same,gamma-GTP,"2 mg/kg, 3 h, dose level Low",1 IU/L
same,TERMINAL_BW,"2 mg/kg, 6 h, dose level Low",187.4 g
same,APTT,"2 mg/kg, 6 h, dose level Low",21.7 s
same,Bas,"2 mg/kg, 6 h, dose level Low",0%
same,Eos,"2 mg/kg, 6 h, dose level Low",0.8%
same,Fbg,"2 mg/kg, 6 h, dose level Low",301.4 mg/dL
same,Hb,"2 mg/kg, 6 h, dose level Low",13.1 g/dL
same,Ht,"2 mg/kg, 6 h, dose level Low",39.4%
same,Lym,"2 mg/kg, 6 h, dose level Low",76.2%
same,MCH,"2 mg/kg, 6 h, dose level Low",21.4 pg
same,MCHC,"2 mg/kg, 6 h, dose level Low",33.4%
same,MCV,"2 mg/kg, 6 h, dose level Low",64.2 fL
same,Mono,"2 mg/kg, 6 h, dose level Low",2.2%
same,Neu,"2 mg/kg, 6 h, dose level Low",20.2%
same,PT,"2 mg/kg, 6 h, dose level Low",16 s
same,Plat,"2 mg/kg, 6 h, dose level Low",121.6 x10_4/uL
same,RBC,"2 mg/kg, 6 h, dose level Low",613.6 x10_4/ul
same,Ret,"2 mg/kg, 6 h, dose level Low",8.5%
same,WBC,"2 mg/kg, 6 h, dose level Low",94.5 x10_2/uL
same,KIDNEY_L,"2 mg/kg, 6 h, dose level Low",0.9 g
same,KIDNEY_R,"2 mg/kg, 6 h, dose level Low",0.9 g
same,KIDNEY_TOTAL,"2 mg/kg, 6 h, dose level Low",1.7 g
same,LIVER,"2 mg/kg, 6 h, dose level Low",8 g
same,ALP,"2 mg/kg, 6 h, dose level Low",1350.2 IU/L
same,ALT,"2 mg/kg, 6 h, dose level Low",39.2 IU/L
same,AST,"2 mg/kg, 6 h, dose level Low",69.2 IU/L
same,BUN,"2 mg/kg, 6 h, dose level Low",10.2 mg/dL
same,CRE,"2 mg/kg, 6 h, dose level Low",0.1 mg/dL
same,Ca,"2 mg/kg, 6 h, dose level Low",10.6 mg/dL
same,Cl,"2 mg/kg, 6 h, dose level Low",106.8 meq/L
same,DBIL,"2 mg/kg, 6 h, dose level Low",0 mg/dL
same,GLC,"2 mg/kg, 6 h, dose level Low",184.8 mg/dL
same,IP,"2 mg/kg, 6 h, dose level Low",9.4 mg/dL
same,K,"2 mg/kg, 6 h, dose level Low",4.4 meq/L
same,LDH,"2 mg/kg, 6 h, dose level Low",195.2 IU/L
same,Na,"2 mg/kg, 6 h, dose level Low",142.8 meq/L
same,PL,"2 mg/kg, 6 h, dose level Low",136.8 mg/dL
same,RALB,"2 mg/kg, 6 h, dose level Low",2.9 g/dL
same,TBIL,"2 mg/kg, 6 h, dose level Low",0.032 mg/dL
same,TC,"2 mg/kg, 6 h, dose level Low",78.2 mg/dL
same,TP,"2 mg/kg, 6 h, dose level Low",5.3 g/dL
same,gamma-GTP,"2 mg/kg, 6 h, dose level Low",1.2 IU/L
same,TERMINAL_BW,"2 mg/kg, 9 h, dose level Low",193.9 g
same,APTT,"2 mg/kg, 9 h, dose level Low",20.9 s
same,Bas,"2 mg/kg, 9 h, dose level Low",0%
same,Eos,"2 mg/kg, 9 h, dose level Low",0.6%
same,Fbg,"2 mg/kg, 9 h, dose level Low",312.6 mg/dL
same,Hb,"2 mg/kg, 9 h, dose level Low",12.9 g/dL
same,Ht,"2 mg/kg, 9 h, dose level Low",38.9%
same,Lym,"2 mg/kg, 9 h, dose level Low",76.4%
same,MCH,"2 mg/kg, 9 h, dose level Low",21.2 pg
same,MCHC,"2 mg/kg, 9 h, dose level Low",33.1%
same,MCV,"2 mg/kg, 9 h, dose level Low",64.1 fL
same,Mono,"2 mg/kg, 9 h, dose level Low",1.6%
same,Neu,"2 mg/kg, 9 h, dose level Low",20.6%
same,PT,"2 mg/kg, 9 h, dose level Low",16.1 s
same,Plat,"2 mg/kg, 9 h, dose level Low",120.1 x10_4/uL
same,RBC,"2 mg/kg, 9 h, dose level Low",607.2 x10_4/ul
same,Ret,"2 mg/kg, 9 h, dose level Low",8.3%
same,WBC,"2 mg/kg, 9 h, dose level Low",83.5 x10_2/uL
same,KIDNEY_L,"2 mg/kg, 9 h, dose level Low",0.9 g
same,KIDNEY_R,"2 mg/kg, 9 h, dose level Low",0.9 g
same,KIDNEY_TOTAL,"2 mg/kg, 9 h, dose level Low",1.8 g
same,LIVER,"2 mg/kg, 9 h, dose level Low",8.3 g
same,ALP,"2 mg/kg, 9 h, dose level Low",1429.8 IU/L
same,ALT,"2 mg/kg, 9 h, dose level Low",36.4 IU/L
same,AST,"2 mg/kg, 9 h, dose level Low",69 IU/L
same,BUN,"2 mg/kg, 9 h, dose level Low",10.2 mg/dL
same,CRE,"2 mg/kg, 9 h, dose level Low",0.2 mg/dL
same,Ca,"2 mg/kg, 9 h, dose level Low",10.7 mg/dL
same,Cl,"2 mg/kg, 9 h, dose level Low",106.4 meq/L
same,DBIL,"2 mg/kg, 9 h, dose level Low",0 mg/dL
same,GLC,"2 mg/kg, 9 h, dose level Low",179.2 mg/dL
same,IP,"2 mg/kg, 9 h, dose level Low",10.1 mg/dL
same,K,"2 mg/kg, 9 h, dose level Low",4 meq/L
same,LDH,"2 mg/kg, 9 h, dose level Low",221 IU/L
same,Na,"2 mg/kg, 9 h, dose level Low",143.4 meq/L
same,PL,"2 mg/kg, 9 h, dose level Low",142.4 mg/dL
same,RALB,"2 mg/kg, 9 h, dose level Low",3.1 g/dL
same,TBIL,"2 mg/kg, 9 h, dose level Low",0.036 mg/dL
same,TC,"2 mg/kg, 9 h, dose level Low",81.2 mg/dL
same,TP,"2 mg/kg, 9 h, dose level Low",5.4 g/dL
same,gamma-GTP,"2 mg/kg, 9 h, dose level Low",1 IU/L
